Measured values: paper PMC6222450, “Computer-Aided Studies for Novel Arylhydantoin 1,3,5-Triazine Derivatives as 5-HT6 Serotonin Receptor Ligands with Antidepressive-Like, Anxiolytic and Antiobesity Action In Vivo” (Molecules : A Journal of Synthetic Chemistry and Natural …, 2018)

How the values were obtained:
dopaminergic D2LR = molecular target: T1, dopaminergic D2LR (Homo sapiens, UniProt P14416); assay: Radioligand binding assay, D2LR, [3H]-Raclopride; conditions: human D2L receptor stably expressed in HEK-293 cells; read-out: Ki D2 [3H]-Raclopride
T1 construct: expressed in transfected cells; host or cells: HEK-293
T1 sequence (P14416 whole entry): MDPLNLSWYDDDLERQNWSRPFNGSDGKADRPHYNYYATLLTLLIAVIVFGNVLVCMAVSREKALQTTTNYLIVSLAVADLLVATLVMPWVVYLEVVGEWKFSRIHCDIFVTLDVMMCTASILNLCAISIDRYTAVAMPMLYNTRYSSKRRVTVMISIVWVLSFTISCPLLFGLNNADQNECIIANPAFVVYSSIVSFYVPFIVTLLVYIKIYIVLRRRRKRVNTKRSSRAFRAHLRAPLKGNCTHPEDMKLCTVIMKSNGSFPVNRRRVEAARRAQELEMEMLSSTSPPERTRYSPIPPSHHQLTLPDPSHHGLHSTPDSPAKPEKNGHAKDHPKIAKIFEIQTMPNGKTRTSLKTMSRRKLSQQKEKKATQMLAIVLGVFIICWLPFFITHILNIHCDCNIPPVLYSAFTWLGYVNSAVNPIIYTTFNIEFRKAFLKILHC

Lipophilicity by RP-TLC = assay type: physicochemical; conditions: RP-18 TLC, water/methanol, extrapolated to 100% water
Method: For comparison, the active arylmethyl-triazine compounds previously found (1–3) were also examined. Stationary phase RP-18 and mixtures of water/methanol […] as a mobile phase were employed. RM values were calculated from the RF data obtained. […] The regression coefficients (r^2) determined for all compounds were higher than 0.95. On the basis of the linear relationship between RM values and the volume fraction of methanol, values of RM0 in the systems analyzed corresponding to 100% of water were obtained by extrapolation. RM0 values received for the compounds tested ranged from 3.14 to 4.49 (Figure 6).
The mobile phases were prepared by mixing the respective amounts of water and organic modifier (methanol) in a range from 40 to 90% (v/v) in 5% increments. TLC was performed on Silica gel 60RP-18 F254 plates (7 × 10 cm) plates (Merck, Darmstadt, Germany). Methanol was used to prepare the solutions of the substances. Solutions (10 µL) of the analyzed compounds were applied to the plates as 5 mm bands, 10 mm apart and 10 mm from the lower edge and sides of the plates, by using Linomat V applicator (Camag, Basel, Switzerland). The vertical chamber (Sigma–Aldrich, St. Louis, MI, USA), 20 × 10 × 18 cm in size, was saturated with mobile phase for 20 min. Development was carried out over 9 cm from the starting line at a temperature of 20 °C. Next, the plates were dried at room temperature, and the spots were observed under ultraviolet light at 254 nm and/or 366 nm (UV lamp, Camag, Basel, Switzerland). In each case, sharp and symmetric spots without a tendency for tailing were obtained. Each experiment was run in triplicate and mean RF (retardation factor) values were calculated.
Starting from the RF values, the RM parameters were computed as described in the formula:RM = log(1/RF − 1)
The linear correlations between the RM values of the substances and the concentration of methanol in mobile phases were calculated for each compound with the Soczewiński-Wachtmeister equation [22]:RM = RM0 + aC where C is the concentration of the organic modifier (in %) in the mobile phase, a is the slope, and RM0 is the […].

5-HT1A = molecular target: T2, 5-HT1A (Homo sapiens, UniProt P08908); assay: Radioligand binding assay, 5-HT1A, [3H]-8-OH-DPAT; conditions: human receptor stably expressed in HEK-293 cells
T2 construct: expressed in transfected cells; host or cells: HEK-293
T2 sequence (P08908 1-422): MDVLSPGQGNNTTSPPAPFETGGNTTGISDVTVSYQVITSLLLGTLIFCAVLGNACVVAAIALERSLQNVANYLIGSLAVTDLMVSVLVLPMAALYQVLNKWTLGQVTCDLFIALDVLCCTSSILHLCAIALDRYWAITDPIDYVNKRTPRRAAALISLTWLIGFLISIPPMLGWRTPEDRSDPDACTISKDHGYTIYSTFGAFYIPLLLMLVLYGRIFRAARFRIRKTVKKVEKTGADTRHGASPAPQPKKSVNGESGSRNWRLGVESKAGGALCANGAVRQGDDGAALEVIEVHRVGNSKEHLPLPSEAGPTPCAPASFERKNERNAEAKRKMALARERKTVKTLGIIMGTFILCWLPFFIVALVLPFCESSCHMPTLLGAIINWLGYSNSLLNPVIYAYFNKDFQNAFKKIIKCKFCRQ

5-HT2A = molecular target: T3, 5-HT2A (Homo sapiens, UniProt P28223); assay: Radioligand binding assay, 5-HT2A, [3H]-Ketanserin; conditions: human receptor stably expressed in HEK-293 cells
T3 construct: expressed in transfected cells; host or cells: HEK-293
T3 sequence (P28223 whole entry): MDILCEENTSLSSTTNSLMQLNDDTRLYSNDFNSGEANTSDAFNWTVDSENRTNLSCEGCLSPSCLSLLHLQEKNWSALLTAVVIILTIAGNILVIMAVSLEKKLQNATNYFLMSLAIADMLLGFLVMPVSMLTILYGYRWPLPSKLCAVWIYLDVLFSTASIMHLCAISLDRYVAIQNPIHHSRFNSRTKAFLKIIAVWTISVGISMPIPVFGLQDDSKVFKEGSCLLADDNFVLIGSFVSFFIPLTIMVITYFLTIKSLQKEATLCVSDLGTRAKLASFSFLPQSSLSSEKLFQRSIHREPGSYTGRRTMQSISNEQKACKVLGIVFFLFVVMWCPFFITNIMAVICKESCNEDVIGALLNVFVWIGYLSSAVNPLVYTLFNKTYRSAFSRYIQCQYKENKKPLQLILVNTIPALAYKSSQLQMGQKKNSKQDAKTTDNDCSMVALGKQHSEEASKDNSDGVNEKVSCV

male Wistar rats = assay: Vogel conflict drinking test; assay type: in vivo, rat; conditions: 3 mg/kg i.p. 60 min before test, 5 min session, p < 0.05
Method: The experiments were performed on male Wistar rats (200–220 g—behavioural test or 170–190 g—metabolic assay) obtained from an accredited animal facility at the Jagiellonian University Medical College, Poland. The animals were housed in a group of four in a controlled environment (ambient temperature 21 ± 2 °C; relative humidity 50–60%; 12 h light/dark cycles (lights on at 8:00). Standard laboratory food (LSM-B) and filtered water were freely available (behavioral tests). Animals were assigned randomly to treatment groups. All the experiments were performed by two observers unaware of the treatment applied between 9:00 and 14:00 on separate groups of animals. All animals were used only once.
Compounds were suspended in 1% Tween 80 immediately before administration in a volume of 2 mL/kg—behavioral tests or 1 mL/kg—body weight measures. Compounds were administered intraperitoneally (i.p.) 60 min before testing—behavioral tests. Control animals received vehicle (1% Tween 80) according to the same schedule.
The testing procedure was based on a method of Vogel et al. and used the Anxiety Monitoring System “Vogel test” produced by TSE Systems (Germany). […] The number of licks and the number of shocks received during a 5 min experimental session were recorded automatically.

[1] = Body weight of non-obese rats fed only standard diet; assay type: in vivo, rat; conditions: rats consuming standard feed, 5 mg/kg b.w. i.p.
Method: Male Wistar rats (170–190 g) were housed in a pair in plastic cages in constant temperature facilities exposed to a light-dark cycle. Control group (standard diet + vehicle) received vehicle (1% Tween 80, intraperitoneally), while the test group (standard diet + 6 or standard diet + 26) was injected (intraperitoneally) with 6 or 26 at the dose of 5 mg/kg b.w. dissolved in 1% Tween 80 (1 mL/kg). Body weights were measured daily immediately prior to administration of drugs.

With `CN1CCN(c2nc(N)nc(CN3C(=O)NC(C)(c4ccc5ccccc5c4)C3=O)n2)CC1` (stereo not drawn) [Compound 26, 3-((4-Amino-6-(4-methylpiperazin-1-yl)-1,3,5-triazin-2-yl)methyl)-5-methyl-5-(naphthalen-2-yl)imidazolidine-2,4-dione] the Ki (dopaminergic D2LR) was 4.25 µM, the RM0 (Lipophilicity by RP-TLC) was 3.76 and the Ki (5-HT1A) was 14.2 µM. For the same compound, the Ki (5-HT2A) was 17.2 µM, the “increase of number of accepted shocks” value (male Wistar rats) was 76% and the “effect on body weight” value [1] was “No effects on body weight”.
